Measured values: patent publication US4089862A, “Pyridyl substituted ergoline derivatives” (Societa' Farmaceutici Italia S.p.A., priority 1976, dated 1978)

System: rabbit platelets
Experiment: ADP induced platelet aggregation in vitro, turbidimetric method (Born and Cross, modified)
Format: cell-based
Settings: percent of ADP controls, rabbit PRP
Excerpt: For the relevant study on the platelet aggregation "in vitro" herein, the turbidimetric method initially described by Born and Cross (J. Physiol. 168, 178, 1963) has been followed with some changes, principally due to the use of rabbit platelets, rather than human or pig platelets, as reported in their original work: (1) Preparation of platelet-rich plasma (PRP) and platelet-poor plasma (PPP) Male rabbits weighing 2.5-3.5 kg were used. Fifty four ml of blood were withdrawn from the carotid artery of rabbits anaesthetized with ether. The blood was gently mixed with six ml of 3.8% trisodium citrate as anticoagulant. The PRP was obtained by centrifugation at 400 g for 10 minutes. The concentration of the platelets was adjusted to 250,000/mm^3 by diluting the PRP with PPP prepared by a second centrifugation of the blood samples for about 10 minutes at 2000 g. The aggregation experiments were in general performed within 1-2 hr. from the time of blood collection. (2) ADP induced platelet aggregation In the cuvette of the aggregometer, reagents were added as follows: 0.8 ml PRP, 0.2 ml drug solution or saline, and 0.2 ml ADP (adenosine diphosphate) at the molar concentration of 2.2 × 10^-4. The turbidimetry was checked after 11/2, 3 and 6 minutes. The inhibition of the aggregation is given in the table as percent of ADP controls at these three times.

[1] = 1 minute and 30 seconds after ADP, 50 γ
[2] = 1 minute and 30 seconds after ADP, 100 γ
[3] = 1 minute and 30 seconds after ADP, 200 γ

SMILES | percent inhibition of platelet aggregation [1] | percent inhibition of platelet aggregation [2] | percent inhibition of platelet aggregation [3] | percent inhibition of platelet aggregation (3 minutes after ADP, 50 γ) | percent inhibition of platelet aggregation (3 minutes after ADP, 100 γ) | percent inhibition of platelet aggregation (3 minutes after ADP, 200 γ) | percent inhibition of platelet aggregation (6 minutes after ADP, 50 γ) | percent inhibition of platelet aggregation (6 minutes after ADP, 100 γ) | percent inhibition of platelet aggregation (6 minutes after ADP, 200 γ)
CO[C@]12C[C@@H](COC(=O)c3cncc(Br)c3)CN(C)[C@@H]1Cc1cn(C)c3cccc2c13 [355/347, 10-methoxy-1,6-dimethyl-8β-methanol-5-bromonicotinate, reference compound] | 11% | 24% | 40% | 12% | 21% | 50% | 22% | 33% | 60%
CO[C@]12C[C@@H](CNc3ccc(Br)cn3)CN(C)[C@@H]1Cc1cn(C)c3cccc2c13 [compound 893, N-(5'-bromo-2'-pyridyl)-10α-methoxy-1,6-dimethylergoline-8β-methanamine] | 31% | 58% | 63% | 14% | 46% | 69% | 7% | 52% | 71%
CO[C@]12C[C@@H](CNc3cc(C)ccn3)CN(C)[C@@H]1Cc1cn(C)c3cccc2c13 [compound 894, N-(4'-methyl-2'-pyridyl)-10α-methoxy-1,6-dimethylergoline-8β-methanamine] | 22% | 61% | 100% | 22% | 61% | 100% | 29% | 71% | 100%
CO[C@]12C[C@@H](CNc3cc(C)cc(C)n3)CN(C)[C@@H]1Cc1cn(C)c3cccc2c13 [compound 897, N-(4',6'-dimethyl-2'-pyridyl)-10α-methoxy-1,6-dimethylergoline-8β-methanamine] | 31% | 62% | 89% | 22% | 51% | 91% | 25% | 56% | 92%
CO[C@]12C[C@@H](CNc3ccccn3)CN(C)[C@@H]1Cc1cn(C)c3cccc2c13 [compound 925, N-(2'-pyridyl)-10α-methoxy-1,6-dimethylergoline-8β-methanamine] | 16% | 50% | 100% | 21% | 56% | 100% | 30% | 65% | 100%
CO[C@]12C[C@@H](CSc3ccc([N+](=O)[O-])cn3)CN(C)[C@@H]1Cc1cn(C)c3cccc2c13 [compound 926, 5'-Nitro-2'-pyridyl-10α-methoxy-1,6-dimethylergoline-8β-methyl sulphide] | 25% | 61% | 100% | 13% | 55% | 100% | 17% | 65% | 100%
